Data taken from publication PMC2768111 (British Journal of Cancer, 2009).
Where two headings read alike, the source gives them in different places.

What was measured:
[1] = biological target: PTK5 (Homo sapiens, UniProt P42685); assay: IC50 Profiler Express kinase assay; assay type: biochemical
[2] = biological target: T1, TAO2 (Homo sapiens, UniProt Q9UL54); assay: IC50 Profiler Express kinase assay; assay type: biochemical
T1 sequence (Q9UL54 1-1235): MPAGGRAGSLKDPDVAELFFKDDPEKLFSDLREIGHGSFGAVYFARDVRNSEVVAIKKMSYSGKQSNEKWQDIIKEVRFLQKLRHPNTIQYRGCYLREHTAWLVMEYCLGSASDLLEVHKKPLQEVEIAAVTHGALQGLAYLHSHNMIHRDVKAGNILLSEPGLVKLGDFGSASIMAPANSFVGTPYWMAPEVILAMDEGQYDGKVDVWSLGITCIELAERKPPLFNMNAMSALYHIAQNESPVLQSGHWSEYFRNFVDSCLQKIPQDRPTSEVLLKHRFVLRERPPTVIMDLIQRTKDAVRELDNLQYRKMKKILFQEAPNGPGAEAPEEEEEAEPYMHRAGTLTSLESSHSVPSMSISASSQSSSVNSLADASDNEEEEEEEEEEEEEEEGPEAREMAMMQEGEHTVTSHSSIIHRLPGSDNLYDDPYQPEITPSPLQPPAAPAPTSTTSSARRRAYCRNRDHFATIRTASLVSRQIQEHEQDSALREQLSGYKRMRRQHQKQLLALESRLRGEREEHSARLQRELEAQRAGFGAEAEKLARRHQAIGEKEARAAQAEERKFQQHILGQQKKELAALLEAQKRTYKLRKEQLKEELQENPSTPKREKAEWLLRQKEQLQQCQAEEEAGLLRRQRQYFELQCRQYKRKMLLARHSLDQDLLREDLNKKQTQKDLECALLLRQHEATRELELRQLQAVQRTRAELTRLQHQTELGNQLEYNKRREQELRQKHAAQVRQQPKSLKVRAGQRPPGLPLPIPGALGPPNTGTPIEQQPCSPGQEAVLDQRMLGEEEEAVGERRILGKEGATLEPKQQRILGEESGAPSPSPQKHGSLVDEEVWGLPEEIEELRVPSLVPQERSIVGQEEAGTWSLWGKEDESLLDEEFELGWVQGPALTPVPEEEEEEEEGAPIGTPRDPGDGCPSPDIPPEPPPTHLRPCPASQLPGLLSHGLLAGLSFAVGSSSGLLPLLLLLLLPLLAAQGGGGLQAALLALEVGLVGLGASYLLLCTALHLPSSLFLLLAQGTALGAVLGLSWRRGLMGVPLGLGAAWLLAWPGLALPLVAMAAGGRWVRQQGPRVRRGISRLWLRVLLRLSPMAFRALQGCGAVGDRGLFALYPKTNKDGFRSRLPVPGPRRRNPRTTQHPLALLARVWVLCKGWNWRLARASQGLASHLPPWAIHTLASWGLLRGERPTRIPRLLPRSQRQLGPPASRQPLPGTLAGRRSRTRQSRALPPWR

[3] = system: human bone marrow progenitor cells; assay: Bone marrow progenitor growth; assay type: cell-based; conditions: CFU-GM, 240 h

PTK5, sequence (P42685 whole entry): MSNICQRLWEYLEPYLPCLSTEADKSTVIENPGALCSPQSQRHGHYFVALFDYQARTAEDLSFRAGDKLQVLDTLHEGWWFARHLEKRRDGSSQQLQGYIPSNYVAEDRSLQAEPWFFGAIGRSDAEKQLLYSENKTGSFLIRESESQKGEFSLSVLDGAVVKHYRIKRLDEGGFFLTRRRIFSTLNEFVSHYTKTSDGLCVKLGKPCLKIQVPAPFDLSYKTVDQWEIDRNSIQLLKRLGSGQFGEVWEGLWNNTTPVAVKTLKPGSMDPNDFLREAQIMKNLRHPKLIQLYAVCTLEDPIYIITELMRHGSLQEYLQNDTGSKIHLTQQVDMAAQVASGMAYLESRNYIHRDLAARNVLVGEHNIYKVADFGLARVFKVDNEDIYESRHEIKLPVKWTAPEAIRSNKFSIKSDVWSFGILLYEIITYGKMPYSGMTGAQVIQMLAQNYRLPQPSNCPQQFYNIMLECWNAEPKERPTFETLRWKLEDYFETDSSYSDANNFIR

IC50 [1] | IC50 [2] | Structure (SMILES) | IC50 ([3]; read-out: IC50, GM-CSF–driven CFU-GM formation) | IC50 ([3]; read-out: IC50, CFU-GM formation induced by GM-CSF)
97 nM | 382 nM | Cc1ccc(Nc2nccc(N(C)c3ccc4c(C)n(C)nc4c3)n2)cc1S(N)(=O)=O [Pazopanib] | 1000 nM | –
– | – | CCN(CC)CCNC(=O)c1c(C)[nH]c(/C=C2\C(=O)Nc3ccc(F)cc32)c1C [Sunitinib] | – | 32.7 nM
